Source: US20060078874A1, “Use of nuclear hormone receptors” (Novo Nordisk A/S, priority 2002, published 2006)
pEC50: −log10 of the molar value.

Columns and labels:
[1] = tested on: cumulus enclosed oocytes (CEO); experiment: Oocyte maturation assay, cumulus enclosed oocytes (CEO test); assay type: cell-based, mouse
Description: (§1) An Agonistic Oocyte Assay Can be Performed as Follows: Oocytes were obtained from immature female mice (C57BL/6J×DBA/2J F1-hybrid, Bomholtgaard, Denmark) weighing 13-16 grams, that were kept under controlled temperature (20-22° C.), light (lights on 06.00-18.00) and relative humidity (50-70%). The mice received an intra-peritoneal injection of 0.2 ml gonadotropins (Gonal-F, Serono) containing 20 IU FSH and 48 hours later the animals were killed by cervical dislocation. The ovaries were dissected out and the oocytes were isolated in Hx-medium (see below) under a stereo microscope by manual rupture of the follicles using a pair of 27 gauge needles. Spherical oocytes displaying an intact germinal vesicle (hereinafter designated GV) were divided in cumulus enclosed oocytes (hereinafter designated CEO) and naked oocytes (hereinafter designated NO) and placed in α-minimum essential medium (α-MEM without ribonucleosides, Gibco BRL, Cat. No. 22561) supplemented with 3 mg/ml bovine serum albumin (BSA, Sigma Cat. No. A-7030), 5 mg/ml human serum albumin (HSA, Statens Seruminstitute, Denmark), 0.23 mM pyruvate (Sigma, Cat. No S-8636), 2 mM glutamine (Flow Cat. No. 16-801), 100 IU/ml penicillin and 100 μg/ml streptomycin (Flow, Cat No. 16-700). This medium was supplemented with 3 mM hypoxanthine (Sigma Cat. No. H-9377) and designated Hx-medium. The oocytes were rinsed three times in Hx-medium and oocytes of uniform size were divided into groups of CEO and NO. CEO and NO were cultured in 4-well multidishes (Nunclon, Denmark) in which each well contained 0.4 ml of Hx-medium. One control well (i.e., 35-45 oocytes cultured in identical medium with no addition of test compound) was always cultured simultaneously with 3 test wells (35-45 oocytes per well supplemented with test compound). The oocytes were cultured in a humidified atmosphere of 5% CO2 in air for 24 hours at 37° C. By the end of the culture period, the number of oocytes with germinal vesicle (hereinafter designated GV), GVBD, and polar body (herein designated PB), respectively, were counted using a stereomicroscope ([…] MZ 12). The percentage GVBD, defined as percentage of oocytes undergoing GVBD per total number of oocytes in that well, was calculated as: % GVBD=100×(number of GVBD+number of PB)/(total number oocytes). The % PB was defined as percentage of oocytes displaying one extruded polar body per total number of oocytes in that well. […] The relative effect of the tested compound is calculated as follows: Relative effect=100×((test GVBD %-negative control GVBD %)/(FF-MAS GVBD %-negative control GVBD %)).

[2] = molecular target: T1, LXRα (Homo sapiens, UniProt Q13133); experiment: Recruitment of co-factors to LXRα (HTRF assay); assay type: biochemical
T1 sequence (Q13133 1-447): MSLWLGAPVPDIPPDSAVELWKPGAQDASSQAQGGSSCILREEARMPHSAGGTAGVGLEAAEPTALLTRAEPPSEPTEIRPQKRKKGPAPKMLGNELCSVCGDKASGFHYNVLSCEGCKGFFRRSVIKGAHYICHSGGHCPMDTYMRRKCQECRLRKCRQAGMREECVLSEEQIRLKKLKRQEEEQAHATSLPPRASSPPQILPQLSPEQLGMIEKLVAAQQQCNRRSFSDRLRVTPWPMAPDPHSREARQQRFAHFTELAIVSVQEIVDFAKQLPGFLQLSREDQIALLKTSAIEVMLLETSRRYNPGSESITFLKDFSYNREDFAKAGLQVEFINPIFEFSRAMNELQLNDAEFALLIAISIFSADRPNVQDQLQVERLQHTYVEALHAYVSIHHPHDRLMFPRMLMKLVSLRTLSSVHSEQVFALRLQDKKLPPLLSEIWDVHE
Excerpt: (§2) The HTRF assay is described in Methods 25 (2001), 54-61. (HTRF is an abbreviation for homogeneous time-resolved fluorescence.)
(§3) The EC50 value is the dose which leads to a 50% saturation.

[3] = tested on: FXRbeta; experiment: FFMAS on mouse FXRbeta (FIG. 3); assay type: biochemical
[4] = molecular target: T2, LXRβ (Homo sapiens, UniProt P55055); experiment: Recruitment of co-factors to LXRβ (HTRF assay); assay type: biochemical
T2 sequence (P55055 1-460): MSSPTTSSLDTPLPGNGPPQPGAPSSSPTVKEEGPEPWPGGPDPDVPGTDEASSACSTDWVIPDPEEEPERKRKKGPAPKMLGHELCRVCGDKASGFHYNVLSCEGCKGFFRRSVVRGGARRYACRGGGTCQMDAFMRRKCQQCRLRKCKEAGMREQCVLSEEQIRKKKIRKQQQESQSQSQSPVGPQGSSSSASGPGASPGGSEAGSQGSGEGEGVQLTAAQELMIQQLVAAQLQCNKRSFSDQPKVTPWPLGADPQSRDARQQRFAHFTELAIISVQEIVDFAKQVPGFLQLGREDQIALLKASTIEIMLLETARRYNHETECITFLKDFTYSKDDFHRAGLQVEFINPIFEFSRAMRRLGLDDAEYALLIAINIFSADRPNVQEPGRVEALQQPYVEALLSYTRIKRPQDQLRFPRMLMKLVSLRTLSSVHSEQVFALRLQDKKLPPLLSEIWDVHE
Excerpt: as §2, §3

[5] = tested on: naked oocytes (NO); details: Byskov et al. Nature 374 (1995); cited from earlier work
[6] = tested on: naked oocytes (NO); experiment: Agonistic oocyte assay, naked oocytes (NO / NkO test); assay type: cell-based, mouse; details: for % GVBD + PB: NkO test
Description: as §1

[7] = molecular target: T1, LXRα; details: Janowski et al. Nature 383 (1996); no direct binding explored; cited from earlier work
[8] = molecular target: T3, FXRalpha (Homo sapiens, UniProt Q96RI1); experiment: FFMAS on human FXRalpha (FIG. 2); assay type: biochemical
T3 sequence (Q96RI1 1-486): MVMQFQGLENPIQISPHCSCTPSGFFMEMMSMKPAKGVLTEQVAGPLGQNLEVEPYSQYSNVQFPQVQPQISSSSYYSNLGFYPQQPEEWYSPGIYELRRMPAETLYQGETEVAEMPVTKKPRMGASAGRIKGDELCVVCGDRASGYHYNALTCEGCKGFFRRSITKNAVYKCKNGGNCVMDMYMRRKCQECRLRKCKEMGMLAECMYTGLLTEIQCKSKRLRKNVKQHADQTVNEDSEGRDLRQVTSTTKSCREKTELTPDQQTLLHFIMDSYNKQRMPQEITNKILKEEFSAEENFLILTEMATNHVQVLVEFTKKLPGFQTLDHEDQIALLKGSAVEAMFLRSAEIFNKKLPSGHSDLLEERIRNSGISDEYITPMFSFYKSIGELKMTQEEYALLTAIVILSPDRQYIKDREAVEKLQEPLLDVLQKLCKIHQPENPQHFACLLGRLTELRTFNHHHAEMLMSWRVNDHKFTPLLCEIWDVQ

[9] = molecular target: T2, LXRβ; experiment: Agonist activity against LXRβ
[10] = molecular target: T1, LXRα; experiment: Agonist activity against LXRα
[11] = molecular target: T4, PXR (Homo sapiens, UniProt O75469); experiment: Agonist activity against PXR
T4 sequence (O75469 1-434): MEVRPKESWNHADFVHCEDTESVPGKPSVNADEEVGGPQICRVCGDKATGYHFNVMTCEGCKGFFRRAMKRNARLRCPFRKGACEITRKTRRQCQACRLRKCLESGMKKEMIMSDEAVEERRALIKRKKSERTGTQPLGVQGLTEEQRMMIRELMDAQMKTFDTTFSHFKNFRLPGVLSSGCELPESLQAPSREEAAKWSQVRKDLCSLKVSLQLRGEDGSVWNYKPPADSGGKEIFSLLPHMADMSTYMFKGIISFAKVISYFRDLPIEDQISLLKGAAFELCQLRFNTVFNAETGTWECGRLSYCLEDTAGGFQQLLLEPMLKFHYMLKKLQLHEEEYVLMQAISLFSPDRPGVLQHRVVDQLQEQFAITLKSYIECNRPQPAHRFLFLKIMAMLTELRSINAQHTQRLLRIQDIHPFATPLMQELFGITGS

[12] = dose which leads to 50% saturation
[13] = 10 μM, naked oocytes (NO) cultured in vitro for 24 hours in Hx-medium

Which “% GVBD + PB” value ([1]; Hx + 10 μM) does the source give for CC(C)=CCC[C@@H](C)[C@H]1CC=C2C3=C(CC[C@@]21C)[C@@]1(C)CC[C@H](O)C(C)(C)[C@@H]1CC3 [FF-MAS, 4,4-dimethyl-5α-cholesta-8,14,24-triene-3β-ol] here?
The value was 78 ± 9%.

And the “Behaviour on human LXRs (LXRα)” value ([2]; FIGS. 1A and 1B)?
Its value is “agonist”.

And the pEC50 [2, 12]?
Its pEC50 is about 7.17.

What about the “Behaviour on mouse FXRbeta” value [3] of the same molecule?
Its value is “partial agonist”.

And the “Behaviour on human LXRs (LXRβ)” value ([4]; FIGS. 1A and 1B)?
The value was “agonist”.

And the pEC50 [4, 12]?
The pEC50 was about 7.68.

What about the “Induction of meiosis in NO in vitro” value [5] of the same molecule?
The value was “induce meiosis”.

What about the “Mean Relative Effect” value ([6]; 10 μM, NO, 24 hours, indexed: control 0, FF-MAS 100) of the same molecule?
Its value is 100.

What about the “Mean % GVBD” value [6, 13] of the same molecule?
The value was 86.1%.

What about the “Mean % PB” value [6, 13] of the same molecule?
The value was 28.5%.

What about the “% GVBD + PB” value ([6]; Hx + 10 μM) of the same molecule?
Its value is 90 ± 8%.

And the “Transactivation of LXRα” value [7]?
The value was “able to transactivate LXRα”.

What about the “Behaviour on human FXRalpha” value [8] of the same molecule?
Its value is “partial agonist”.

What does the source list for O=C(O)Cc1cccc(OCCCN(Cc2cccc(C(F)(F)F)c2Cl)CC(c2ccccc2)c2ccccc2)c1 [90-8684, 2-(3-{3-[[2-chloro-3-(trifluoromethyl)benzyl](2,2-diphenylethyl)amino]propoxy}phenyl)acetic acid]?
% GVBD + PB ([1]; Hx + 2.5 μM): 69 ± 3%; % GVBD + PB ([1]; Hx + 5 μM): 71 ± 6%; % GVBD + PB ([1]; Hx + 10 μM): 86 ± 7%; % GVBD + PB ([6]; Hx + 5 μM): 45 ± 5%; % GVBD + PB ([6]; Hx + 10 μM): 49 ± 8%; % GVBD + PB ([6]; Hx + 15 μM): 54 ± 5%; Meiosis-inducing effect in an oocyte maturation assay ([6]; mouse oocytes, NkO and CEO tests): dose-dependent maturation of the oocytes; Activity against LXRβ [9]: showed activity; Activity against LXRα [10]: showed activity; Activity against PXR [11]: showed activity
